# Data as given in US11466025B2, “Thienopyridine derivatives containing unsaturated aliphatic olefinic bond, preparation method and use thereof” (Tianjin Institute of Pharmaceutical Research Co., Ltd., priority 2017, dated 2022).
# Read-outs that look alike come from different tables or passages of the source.
# Columns and labels:
# [1] = for Concentration of incubated compound in human plasma / Incubated compound in human plasma, %: 1 μM
# Description: Plasma samples (double sample) containing 1 μM of the compounds of the present invention, clopidogrel hydrogen sulfate (LBGL), 2-oxo product (2-Oxo) were prepared from human blank plasma, and incubated at 37° C. 50 μL of the above incubated plasma samples were taken at different time points, and 100 μL of precipitant (acetonitrile:methanol=7:3) and 50 μL of internal standard were added. The mixture was vortexed for 1 min and centrifuged for 10 min. 100 μL of the supernatant was taken into an inner inserted tube, centrifuged for 5 min, and injected for LC-MS/MS analysis.
# Preparation of blank control sample (PPT-0): 100 μL of frozen human blank plasma was taken, to which 195 μL of acetonitrile and 100 μL of internal standard were added, followed by 5 μL of the compound of the present invention, clopidogrel or 2-oxo product (20 μM). The mixture was vortexed for 1 min and centrifuged for 10 min. 100 μL of the supernatant was taken into an inner inserted tube, centrifuged for 5 min, and injected for LC-MS/MS analysis.
# [2] = system: arteriovenous bypass thrombosis in rats; experiment: Test of effect of compounds on arteriovenous bypass thrombosis in rats; assay type: in vivo, SD rats; conditions: rats; for Inhibition rate (%): dry weight of thrombus
# Description: Test of Effect of Compounds on Arteriovenous Bypass Thrombosis in Rats
# Male SD rats were randomly divided into solvent control group, positive drug control group and test compound group. The solvent control group was administered a corresponding volume of the solvent. […] Rats were anesthetized with 4% chloral hydrate (0.32 g/kg), and fixed on the operating table at the supine position. The right common carotid artery and the left external jugular vein were separated, and was each inserted with a Teflon tube filled with normal saline solution containing heparin (50 U/mL), which were connected through another Teflon tube. A 6 cm long cotton thread was placed at the joints of the two tubes. After 2.5 h of administration, the arteriovenous loop was opened in each group and circulated for 15 min. The blood flow was interrupted, and the cotton thread wrapped with the thrombus was quickly removed and weighed. The weight of the cotton thread was subtracted to obtain the wet weight of the thrombus, and then it was baked in the oven to constant weight and weighed. The weight of the cotton thread was subtracted to obtain the dry weight of the thrombus.
# [3] = system: platelet aggregation induced by ADP; experiment: Test of inhibitory effect of compounds on platelet aggregation in rats (ex vivo, ADP-induced, after intragastric administration); set-up: species or system SD rats; conditions: for ED50: Rattus norvegicus; for Inhibition rate (%): platelet aggregation, control = 100%; for Aggregation rate (%): 2 h after administration, ADP 20 uM
# Description: Test of Inhibitory Effect of Compounds on Platelet Aggregation in Rats Healthy male SD rats were selected and randomly divided into solvent control group, positive drug control group and test compound group. Intragastric administration was carried out, with the administration volume being 10 ml/kg˜bw. […] The platelet count was adjusted to 5×10^8 cells/ml with PPP.
# [4] = Stability of the compounds under high temperature, high humidity and light (influence factors, HPLC); assay type: physicochemical
# Description: Study on the Stability of the Compounds:
# The stability of the compound is investigated under the conditions of high temperature, high humidity and light. The testing conditions for high performance liquid chromatography (HPLC) are as follows:
# Instrument: high performance liquid chromatography;
# Column: Inertsil C8-3, 150 mm×4.6 mm, 5 μm;
# Mobile phase A: acetonitrile; mobile phase B: 5 mM ammonium dihydrogen phosphate;
# Detection wavelength: 220 nm;
# Column temperature: 35° C.;
# Sample chamber temperature: 25° C.;
# Column: Agilent Poroshell 120 EC-C18, 100 mm×4.6 mm, 2.7 μm;
# Column temperature: 30° C.;
# Other conditions are the same as that in Method 1.
# Samples relating to Compound I-2 were tested using Method 2 and other samples were tested using Method 1. The test results of the influence factors are shown in Table 14, and the test results of the light-avoidance stability test are shown in Table 15.
# [5] = inhibition of ADP-induced platelet aggregation, rats, oral administration, read-out: ED50
# [6] = 5 days, High temperature 60° C.
# [7] = 10 days, High temperature 60° C.
# [8] = 30 days, High temperature 60° C.
smiles,measurement,setting,value
"COC(=O)[C@H](c1ccccc1Cl)N1CCc2sccc2C1 [Clopidogrel, reference compound]",Concentration of incubated compound in human plasma,[1]; 0 min,965 nM
same,"Incubated compound in human plasma, %",[1]; 0 min,98.1%
same,Concentration of incubated compound in human plasma,[1]; 5 min,1045 nM
same,"Incubated compound in human plasma, %",[1]; 5 min,106%
same,Concentration of incubated compound in human plasma,[1]; 10 min,1000 nM
same,"Incubated compound in human plasma, %",[1]; 10 min,102%
same,Concentration of incubated compound in human plasma,[1]; 20 min,987 nM
same,"Incubated compound in human plasma, %",[1]; 20 min,100%
same,Concentration of incubated compound in human plasma,[1]; 30 min,1025 nM
same,"Incubated compound in human plasma, %",[1]; 30 min,104%
same,Concentration of incubated compound in human plasma,[1]; 45 min,995 nM
same,"Incubated compound in human plasma, %",[1]; 45 min,101%
same,Concentration of incubated compound in human plasma,[1]; 60 min,981 nM
same,"Incubated compound in human plasma, %",[1]; 60 min,100%
same,Concentration of incubated compound in human plasma,[1]; 90 min,924 nM
same,"Incubated compound in human plasma, %",[1]; 90 min,94.0%
same,Concentration of incubated compound in human plasma,[1]; 120 min,944 nM
same,"Incubated compound in human plasma, %",[1]; 120 min,96.0%
same,Stability in human plasma,"[1]; plasma, 2 h",substantially stable
same,ED50,"[2]; Rattus norvegicus, po, dry weight of thrombus from arteriovenous bypass, intragastric, read-out: ED50",11.8 mg/kg
same,Inhibition rate (%),[2]; intragastric 3 mg/kg,24.2%
same,Inhibition rate (%),[2]; intragastric 10 mg/kg,41.5%
same,Inhibition rate (%),[2]; intragastric 30 mg/kg,72.6%
same,ED50,[3]; [5],4.13 mg/kg
same,Inhibition rate (%),"[3]; rats, intragastric 2.5 mg/kg",26.5%
same,Inhibition rate (%),"[3]; rats, intragastric 5 mg/kg",59.7%
same,Inhibition rate (%),"[3]; rats, intragastric 10 mg/kg",90.5%
same,Aggregation rate (%),"[3]; rats, intragastric 2.5 mg/kg",44.1 ± 13.5%
same,Aggregation rate (%),"[3]; rats, intragastric 5 mg/kg",24.2 ± 10.6 %
same,Aggregation rate (%),"[3]; rats, intragastric 10 mg/kg",5.7 ± 7.5 %
"COC(=O)[C@H](c1ccccc1Cl)N1CCc2sc(OC(C)=O)cc2C1.Cl [Compound D-9, Methyl (S,E)-2-(2-chlorophenyl)-2-(2-acetoxy-6,7-dihydrothieno[3,2-c]pyridin-5(4H)-yl)-acetate Hydrochloride, reference compound]",Chromatographic purity %,"[4]; 0 day, 0point",99.802%
same,Individual maximum impurity %,"[4]; 0 day, 0point",0.062%
same,Chromatographic purity %,"[4]; 5 days, High humidity RH92.5%",29.362%
same,Individual maximum impurity %,"[4]; 5 days, High humidity RH92.5%",20.760%
same,Chromatographic purity %,[4]; [6],92.725%
same,Individual maximum impurity %,[4]; [6],2.897%
same,Chromatographic purity %,"[4]; 5 days, Light 4500 ± 500 LX",97.637%
same,Individual maximum impurity %,"[4]; 5 days, Light 4500 ± 500 LX",0.946%
same,Chromatographic purity %,"[4]; 10 days, High humidity RH92.5%",3.827%
same,Individual maximum impurity %,"[4]; 10 days, High humidity RH92.5%",26.942%
same,Chromatographic purity %,[4]; [7],84.395%
same,Individual maximum impurity %,[4]; [7],5.254%
same,Chromatographic purity %,"[4]; 10 days, Light 4500 ± 500 LX",96.472%
same,Individual maximum impurity %,"[4]; 10 days, Light 4500 ± 500 LX",1.621%
same,Individual maximum impurity %,"[4]; 30 days, High humidity RH92.5%",52.717%
same,Chromatographic purity %,[4]; [8],39.866%
same,Individual maximum impurity %,[4]; [8],9.740%
same,Chromatographic purity %,"[4]; 30 days, Light 4500 ± 500 LX",91.198%
same,Individual maximum impurity %,"[4]; 30 days, Light 4500 ± 500 LX",3.728%
"C=C/C=C/C(=O)Oc1cc2c(s1)CCN([C@H](C(=O)OC)c1ccccc1Cl)C2 [Compound I-3, Methyl (S,E)-2-(2-chlorophenyl)-2-(2-(2,4-pentadienoyloxy)-6,7-dihydrothieno[3,2-c]pyridin-5(4H)-yl)-acetate]",ED50,[3]; [5],1.04 mg/kg
same,Inhibition rate (%),"[3]; rats, intragastric 1 mg/kg",44.0%
same,Inhibition rate (%),"[3]; rats, intragastric 2 mg/kg",97.6%
same,Inhibition rate (%),"[3]; rats, intragastric 4 mg/kg",100%
same,Aggregation rate (%),"[3]; rats, intragastric 1 mg/kg",33.6 ± 31.3%
same,Aggregation rate (%),"[3]; rats, intragastric 2 mg/kg",1.44 ± 2.5 %
same,Aggregation rate (%),"[3]; rats, intragastric 4 mg/kg",0.0 ± 0.0 %
"CCC/C=C/C(=O)Oc1cc2c(s1)CCN([C@H](C(=O)OC)c1ccccc1Cl)C2 [Compound I-5, Methyl (S,E)-2-(2-chlorophenyl)-2-(2-(2-hexenoyloxy)-6,7-dihydrothieno[3,2-c]pyridin-5(4H)-yl)-acetate]",ED50,"[3]; Platelet, po",1.03 mg/kg
same,Inhibition rate (%),"[3]; rats, intragastric 0.5 mg/kg",19.5%
same,Inhibition rate (%),"[3]; rats, intragastric 1 mg/kg",52.8%
same,Inhibition rate (%),"[3]; rats, intragastric 2 mg/kg",74.3%
same,Aggregation rate (%),"[3]; rats, intragastric 0.5 mg/kg",48.4 ± 17.3%
same,Aggregation rate (%),"[3]; rats, intragastric 1 mg/kg",28.3 ± 11.7 %
same,Aggregation rate (%),"[3]; rats, intragastric 2 mg/kg",15.4 ± 14.7 %
"COC(=O)[C@H](c1ccccc1Cl)N1CCc2sc(OC(=O)/C=C/c3ccc(OC)cc3)cc2C1 [Compound D-8, Methyl (S,E)-2-(2-chlorophenyl)-2-(2-(3-(4-methoxyphenyl)acryloyloxy)-6,7-dihydrothieno[3,2-c]pyridin-5(4H)-yl)-acetate, reference compound]",Chromatographic purity %,"[4]; 0 day, 0point",99.118%
same,Individual maximum impurity %,"[4]; 0 day, 0point",0.135%
same,Chromatographic purity %,"[4]; 5 days, High humidity RH92.5%",99.253%
same,Individual maximum impurity %,"[4]; 5 days, High humidity RH92.5%",0.127%
same,Chromatographic purity %,[4]; [6],96.953%
same,Individual maximum impurity %,[4]; [6],0.510%
same,Chromatographic purity %,"[4]; 5 days, Light 4500 ± 500 LX",91.635%
same,Individual maximum impurity %,"[4]; 5 days, Light 4500 ± 500 LX",1.094%
same,Chromatographic purity %,"[4]; 10 days, High humidity RH92.5%",99.202%
same,Individual maximum impurity %,"[4]; 10 days, High humidity RH92.5%",0.104%
same,Chromatographic purity %,[4]; [7],93.371%
same,Individual maximum impurity %,[4]; [7],1.224%
same,Chromatographic purity %,"[4]; 10 days, Light 4500 ± 500 LX",80.960%
same,Individual maximum impurity %,"[4]; 10 days, Light 4500 ± 500 LX",2.821%
same,Chromatographic purity %,"[4]; 30 days, High humidity RH92.5%",98.933%
same,Individual maximum impurity %,"[4]; 30 days, High humidity RH92.5%",0.172%
same,Chromatographic purity %,[4]; [8],80.070%
same,Individual maximum impurity %,[4]; [8],5.418%
same,Chromatographic purity %,"[4]; 30 days, Light 4500 ± 500 LX",59.908%
same,Individual maximum impurity %,"[4]; 30 days, Light 4500 ± 500 LX",8.206%
"CC/C=C/C(=O)Oc1cc2c(s1)CCN([C@H](C(=O)OC)c1ccccc1Cl)C2 [Compound I-4, Methyl (S,E)-2-(2-chlorophenyl)-2-(2-(2-pentenoyloxy)-6,7-dihydrothieno[3,2-c]pyridin-5(4H)-yl)-acetate]",ED50,[3]; [5],1.27 mg/kg
same,Inhibition rate (%),"[3]; rats, intragastric 0.5 mg/kg",26.2%
same,Inhibition rate (%),"[3]; rats, intragastric 1 mg/kg",38.2%
same,Inhibition rate (%),"[3]; rats, intragastric 2 mg/kg",62.9%
same,Inhibition rate (%),"[3]; rats, intragastric 4 mg/kg",78.4%
same,Inhibition rate (%),"[3]; rats, intragastric 8 mg/kg",100.0%
same,Aggregation rate (%),"[3]; rats, intragastric 0.5 mg/kg",44.3 ± 25.8%
same,Aggregation rate (%),"[3]; rats, intragastric 1 mg/kg",37.1 ± 20.8%
same,Aggregation rate (%),"[3]; rats, intragastric 2 mg/kg",22.3 ± 17.2 %
same,Aggregation rate (%),"[3]; rats, intragastric 4 mg/kg",13.0 ± 11.3 %
same,Aggregation rate (%),"[3]; rats, intragastric 8 mg/kg",0.0 ± 0.0 %
